Measured values taken from patent publication US20220233668A1, “GLYCOPEPTIDE VACCINE” (VICTORIA LINK LTD., priority 2019, published 2022).
“Also recorded” adds a separate entry of the source.

Legend:
P. berghei sporozoites = assay: P. berghei sporozoite challenge of vaccinated mice given PbT-I cells; settings: single vaccination; 200 P. berghei ANKA sporozoites at day 42
Method: The remaining mice were challenged with 200 P. berghei sporozoites at day 42 and parasitemia was measured by flow cytometry from day 6-13. […] Percentage of parasites present in red blood cells at day 7 post malaria challenge. […] Number of mice that succumbed or were protected after malaria challenge.
The remaining mice in each group were challenged with 200 P. berghei sporozoites at day 73 and parasitemia was measured at day 79, 80, 81. Mice with two consecutive days of visible parasites in the blood were culled. Mice surviving challenge with low dose sporozoites were rechallenged with 3000 sporozoites. Parasitemia was measured at days 5, 6, 7, 8 and 12 post-high-dose-challenge.
As described in Example 11, 50,000 PbT-I.GFP cells were transferred into recipient C57BL/6 mice. […] Organs were harvested from mice from each group at days 21-35 post vaccination and assessed for the generation of memory T cells by flow cytometry as outlined in FIG. 5. The remaining mice per group were challenged with 200 P. berghei sporozoites at day 42 and parasitemia was measured by flow cytometry at days 6, 7, 8 and 13. […]
As described in Example 12, 50,000 PbT-I.GFP cells were transferred into recipient C57BL/6 mice. […] Organs were harvested from mice from each group at days 21 post vaccination and assessed for the generation of memory T cells by flow cytometry as outlined in FIG. 5. […]

NKT cells = assay: NKT cell expansion and activation by NVY conjugates; type: in vivo, C57BL/6 mice; settings: 0.135 nmol, day 3
Description: Lymphocytes were stained with monoclonal antibodies for: CD49a (Ha31/8), NK1.1 (PK136) from BD (North Ryde, NSW, Australia), CD8a (53-6.7), KLRG1 (2F1), Ly5.1 (A20), Ly5.1 (104), CD8a (53-6.7), CD44 (IM7), Ly6C (HK1.4), TCRβ (H57-597), CXCR6 (SA051D1), CXCR3 (CXCR3-173), CX3CR1 (SA011F11), from Biolegend (Australian Biosearch, Karrinyup, WA. Australia), and CD62L (MEL-14), CD101 (Moushi101) and CD69 (H1.2F3), from eBioscience (Jomar Life Research, Scoresby, VIC, Australia). Dead cells were excluded by propidium iodide staining or far red live/dead fixable dye (ThermoFisher). In some experiments cells were stained with an α-GalCer (PBS-44—a gift from Prof. Paul Savage, Brigham-Young University, UT, USA)-loaded CD1d tetramer produced in-house at 4° C. for 30 min, washed, and further antibody staining was conducted for 10 min at 4° C. Antibodies used were for: CD3 (17A2), CD45R/B220 (RA3-6B2), NK1.1 (PK136), CD69 (H1.2F3), all from BioLegend (CA, USA). The viability dye used was DAPI (Invitrogen, NZ). Single-color positive control samples were used to adjust compensation and cells were analyzed by flow cytometry on a LSR Fortessa (BD Biosciences), or LSRII SORP using Flowjo software (Tree Star Inc.).

PbT-I liver TRM cells = assay: Prime-and-trap vaccination with CpG or α-GalCer as adjuvant; type: in vivo, C57BL/6 mice; settings: adjuvant with αClec9a-NVY plus rAAV-NVY; 50,000 PbT-I cells; liver day 35
Description: The following day all mice were infected with 2.5×10^9 copies of rAAV-NVY. Spleens (A) and livers (B) were harvested from all mice 35 days later and the number of PbT-I TRM (CD69^+CD62L^low), TEM (CD69−CD62L^low) and TCM (CD69−CD62L^high) cells were enumerated by flow cytometry.
As illustrated above, prime-and-trap vaccination using CpG as an adjuvant was very effective at inducing liver TRM cells. To test whether CpG adjuvant might be substituted by α-GalCer, we compared prime-and-trap using CpG versus α-GalCer, (FIG. 3). C57BL/6 mice were injected with 50,000 naïve PbT-I T cells to track responses and were then vaccinated with the anti-Clec9A-NVY fusion protein together with either CpG or α-GalCer as adjuvant plus rAAV-NVY (SEQ ID NO: 15).

[1] = system: epitope-specific CD8+ T cell response; assay: PfRPL677-85-specific response in spleen by ELISpot after peptide immunization of HHD mice; type: in vivo; settings: peptide with anti-CD40 mAb and poly IC, spleen day 7
Method: HHD mice, which express human HLA-A*02:01 and lack expression of murine MHC class molecules, were immunized with […] anti-CD40 mAb+[…] poly IC+[…] of PfRPL677-85 peptide ([…]) (SEQ ID NO: 18), or no peptide. 7 days later, PfRPL677-85-specific responses were measured in the spleen by ELISpot, by restimulating with the same peptide. Data were analysed using two-way ANOVA; Number of experiments=2, number of mice=3-4.
Having characterized PBANKA 1351900 (60S ribosomal protein L6-2, putative) RPL6 as a promising antigen in P. berghei, we sought to identify potential human-relevant antigens in its P. falciparum ortholog (PF3D7 1338200, also known as PF13 0213). To this extent, we used the Immune Epitope Database (IEDB: https://www.iedb.org/) epitope prediction resource (Vita, R. et al. 2019) to search for peptides within P. falciparum RPL6 that were capable of binding HLA-A*02:01; a common allele.

Compound | protection after malaria challenge (P. berghei sporozoites) | expansion of NKT cells (numbers in liver and spleen) (NKT cells) | activation of NKT cells (CD69, NK1.1) (NKT cells; liver and spleen) | liver TRM cell numbers in prime-and-trap setting (PbT-I liver TRM cells) | epitope-specific CD8+ T cell response [1]
CCCCCCCCCCCCCCCCCCCCCCCCCC(=O)N[C@@H](CO[C@H]1O[C@H](CO)[C@H](O)[C@H](O)[C@H]1O)[C@H](O)[C@H](O)CCCCCCCCCCCCCC [α-GalCer, N-((2S,3S,4R)-3,4-Dihydroxy-1-(((2S,3R,4S,5R,6R)-3,4,5-trihydroxy-6-(hydroxymethyl)tetrahydro-2H-pyran-2-yl)oxy)octadecan-2-yl)hexacosanamide] | no mice were protected | more efficient at expanding NKT cells than V.S.NVYLP | more potently activated NKT cells when compared to V.S.NVYLP | gave a much poorer liver TRM cell response; also recorded: does not generate large numbers of liver TRM cells; also recorded: did not produce high numbers of liver TRM cells | –
ILNSGLLAV | – | – | – | – | triggered an epitope-specific CD8^+ T cell response
